{"source": "patent US8481551B2", "about": "“Gyrase and topoisomerase IV inhibitors” (Vertex Pharmaceuticals Incorporated, priority 2011, dated 2013)", "key": {"[1]": {"test_system": "Staphlococcus epidermidis", "assay": "Gyrase MIC, microdilution broth method (Protocol 1)", "assay_type": "cell-based, Staphylococcus epidermidis", "settings": "35 isolates tested"}, "Bacillus subtilis": {"test_system": "Bacillus subtilis", "assay": "Gyrase MIC, microdilution broth method (Protocol 1)", "assay_type": "cell-based"}, "Klebsiella pneumoniae": {"test_system": "Klebsiella pneumoniae", "assay": "Gyrase MIC against Gram negatives, microdilution broth method (Protocol 2)", "assay_type": "cell-based"}, "Acinetobacter baumannii": {"test_system": "Acinetobacter baumannii", "assay": "Gyrase MIC against Gram negatives, microdilution broth method (Protocol 2)", "assay_type": "cell-based"}, "Proteus mirabilis": {"test_system": "Proteus mirabilis", "assay": "Gyrase MIC against Gram negatives, microdilution broth method (Protocol 2)", "assay_type": "cell-based", "settings": "12 isolates tested"}, "[2]": {"test_system": "Bacteroides and Parabacter spp.", "assay": "Gyrase MIC, agar dilution method (Protocol 3)", "assay_type": "cell-based", "settings": "26 isolates tested"}, "Clostridium perfringens": {"test_system": "Clostridium perfringens", "assay": "microbe, parasite or virus in culture", "assay_type": "cell-based"}, "Fusobacterium spp.": {"test_system": "Fusobacterium spp.", "assay": "Gyrase MIC, agar dilution method (Protocol 3)", "assay_type": "cell-based", "settings": "16 isolates tested"}, "Prevotella spp.": {"test_system": "Prevotella spp.", "assay": "Gyrase MIC, agar dilution method (Protocol 3)", "assay_type": "cell-based", "settings": "13 isolates tested"}, "Mycobacterium avium": {"test_system": "Mycobacterium avium", "assay": "MIC determination procedure for Mycobacterium species (Protocol 4)", "assay_type": "cell-based"}, "S. aureus (ATCC 29213)": {"test_system": "S. aureus (ATCC 29213)", "assay": "Neutropenic rat thigh infection model", "assay_type": "in vivo, Sprague Dawley rats", "description": "Animals: Specific-pathogen-free, male Sprague Dawley rats weighing between 76 to 100 grams were obtained from Charles River Laboratories, Inc. (Wilmington, Mass.) and utilized in this experiment. Animals were allowed to acclimate for a minimum of seven (7) days before study commencement. Bacteria: The methicillin-sensitive Staphylococcus aureus(MSSA) ATCC strain 29213 was utilized for in vivo experimentation. The test isolate was subcultured twice onto standard microbiological agar media (trypticase soy agar with 5% sheep blood). The second transfer was made less than 24 hours before use in the preparation of the thigh infection model inoculum. Neutropenic Rat Thigh Infection Model: To induce neutropenia, rats were treated with the immunosuppressant cyclophosphamide at 150 mg/kg, administered in 1 ml by intraperitoneal (IP) injection, three day prior to infection. Rats were infected by an intramuscular (IM) 0.2 ml injection into both rear thighs with a 10^7 cfu/ml methicillin-sensitive Staphylococcus aureus 29213 suspension in normal saline. After increasing amounts of time (2-26 hours) the two rear thighs of each animal were harvested, rinsed with sterile saline, weighed, then placed in 50 ml sterile normal saline and placed on wet ice until homogenization. Approximately one-half of the total homogenized sample volume was passed through a large pore filter (to remove cartilage and large clumped pieces of tissue), diluted in saline and cultured onto agar media plates (trypticase soy agar with 5% sheep blood). All culture plates were incubated at approximately 37° C. for 18-24 hours. Colony-forming units were enumerated (in cfu/ml of homogenate) and the median for each treatment and control group was calculated. […] The median cfu/ml per group was compared to the initial bacterial density at 2 hours (Early Control) or that of the time-matched vehicle control group (Late Control; LC) group harvested simultaneously. […] After 2 hours a single group of rats (Early Control (EC) was euthanized and the thighs harvested, homogenized and plated to quantitate S. aureus burdens. The additional infected rats were treated by oral gavage with Vehicle at 10 ml/kg (20% Cavitron/1% HPMCAS-MG; […] The 8-hour treatment groups received a single treatment (QD) and were euthanized and thighs collected for cfu determination 8 hours post treatment (QD), while the 24-hour treatment groups received 2 doses 12 hours apart (q12 h) and were euthanized and thighs collected 24 hours post treatment. […] After 2 hours a single group of rats (Early Control (EC)) was euthanized and the thighs harvested, homogenized and plated to quantitate S. aureus burdens. The additional infected rats were treated by oral gavage with Vehicle at 10 ml/kg (10% Vitamin E/TPGS; […] The 8-hour treatment groups received a single treatment (QD) and were euthanized and thighs collected for cfu determination 8 hours post treatment (QD), while the 24 hour treatment groups received 2 doses 12 hours apart (q12 h) and were euthanized and thighs collected 24 hours post treatment."}, "Streptococcus pneumoniae": {"test_system": "Streptococcus pneumoniae", "assay": "Gyrase MIC, microdilution broth method (Protocol 1)"}, "[3]": {"settings": "8 hours after the first dose, 10 mg/kg oral"}, "[4]": {"settings": "8 hours after the first dose, 60 mg/kg oral"}, "[5]": {"settings": "8 hours after the first dose, 100 mg/kg oral"}, "[6]": {"settings": "Table 9: 10 mg/kg oral, QD, 8 Hours"}, "[7]": {"settings": "Table 9: 10 mg/kg oral, q12 h, 24 Hours"}, "[8]": {"settings": "Table 9: 60 mg/kg oral, QD, 8 Hours"}, "[9]": {"settings": "Table 9: 60 mg/kg oral, q12 h, 24 Hours"}, "[10]": {"settings": "Table 9: 100 mg/kg oral, QD, 8 Hours"}, "[11]": {"settings": "Table 9: 100 mg/kg oral, q12 h, 24 Hours"}}, "note": "Counter-ions that a name gives are not always drawn."}
{"compound": "CCNC(=O)Nc1nc2cc(-c3cnc(C(C)(C)O)nc3)cc([C@H]3CCCO3)c2[nH]1", "note": "[Compound 13, methanesulfonic acid salt of 1-ethyl-3-[5-[2-(1-hydroxy-1-methyl-ethyl)pyrimidin-5-yl]-7-[(2R)-tetrahydrofuran-2-yl]-1H-benzimidazol-2-yl]urea]", "values": [{"measurement": "MIC Range", "setting": "[1]", "value": "0.03 to 0.25", "unit": "µg/mL"}, {"measurement": "MIC90", "setting": "[1]; Staphylococcus epidermidis", "value": 0.12, "unit": "µg/mL"}, {"measurement": "MIC", "setting": "Bacillus subtilis; ATCC6051, Bacillus subtilis (168) ATCC 6051", "value": "> 8", "unit": "µg/mL"}, {"measurement": "MIC", "setting": "Bacillus subtilis; ATCC6638, Bacillus subtilis ATCC 6638", "value": "> 8", "unit": "µg/mL"}, {"measurement": "MIC", "setting": "Klebsiella pneumoniae; ATCC700603, Klebsiella pneumoniae ATCC 700603", "value": "> 16", "unit": "µg/mL"}, {"measurement": "MIC", "setting": "Klebsiella pneumoniae; ATCCBAA1705, Klebsiella pneumoniae ATCC BAA-1705", "value": "> 16", "unit": "µg/mL"}, {"measurement": "MIC90", "setting": "Klebsiella pneumoniae; Klebsiella pneumoniae, 12 isolates tested", "value": "> 8", "unit": "µg/mL"}, {"measurement": "MIC", "setting": "Acinetobacter baumannii; ATCC19606, Acinetobacter baumannii ATCC 19606", "value": "> 16", "unit": "µg/mL"}, {"measurement": "MIC", "setting": "Acinetobacter baumannii; ATCCBAA1710, Acinetobacter baumannii ATCC BAA-1710", "value": "> 16", "unit": "µg/mL"}, {"measurement": "MIC90", "setting": "Acinetobacter baumannii; Acinetobacter baumannii, 12 isolates tested", "value": "> 8", "unit": "µg/mL"}, {"measurement": "MIC90", "setting": "Proteus mirabilis", "value": "> 8", "unit": "µg/mL"}, {"measurement": "MIC90", "setting": "[2]", "value": "> 16", "unit": "µg/mL"}, {"measurement": "MIC90", "setting": "Clostridium perfringens", "value": 0.5, "unit": "µg/mL"}, {"measurement": "MIC90", "setting": "Fusobacterium spp.", "value": 2, "unit": "µg/mL"}, {"measurement": "MIC Range", "setting": "Fusobacterium spp.", "value": "1 to 4", "unit": "µg/mL"}, {"measurement": "MIC90", "setting": "Prevotella spp.", "value": "> 16", "unit": "µg/mL"}, {"measurement": "MIC", "setting": "Mycobacterium avium; M. avium 3404.4", "value": 0.94, "unit": "µg/mL"}, {"measurement": "MIC", "setting": "Mycobacterium avium; M. avium Far", "value": 0.94, "unit": "µg/mL"}, {"measurement": "MIC", "setting": "Mycobacterium avium; Mycobacterium avium 103", "value": 0.47, "unit": "µg/mL"}, {"measurement": "bacterial growth compared to early control", "setting": "S. aureus (ATCC 29213); [3]", "value": "held the bacterial growth of SA 29213 to at least the point of stasis"}, {"measurement": "log reduction in burdens compared to time-matched control", "setting": "S. aureus (ATCC 29213); [3]", "value": "~1.5", "unit": "log"}, {"measurement": "decrease of bacterial burden versus early control", "setting": "S. aureus (ATCC 29213); [4]", "value": "~0.4", "unit": "logs"}, {"measurement": "log reduction in burdens compared to time-matched control", "setting": "S. aureus (ATCC 29213); [4]", "value": "~1.7", "unit": "log"}, {"measurement": "decrease of bacterial burden versus early control", "setting": "S. aureus (ATCC 29213); [5]", "value": "~0.5", "unit": "logs"}, {"measurement": "log reduction in burdens compared to time-matched control", "setting": "S. aureus (ATCC 29213); [5]", "value": 1.8, "unit": "log"}, {"measurement": "decrease in bacterial density compared to early control", "setting": "S. aureus (ATCC 29213); 24 hours, second dose at 12 hours, 60 and 100 mg/kg", "value": "approximately 1 log"}, {"measurement": "reduction of bacterial density compared to late control", "setting": "S. aureus (ATCC 29213); 24 hours, 10 mg/kg treatment group", "value": "~1.1", "unit": "log"}, {"measurement": "cfu levels greater than the early control", "setting": "S. aureus (ATCC 29213); 24 hours, 30 mg/kg (so in the source), did not appear effective", "value": 0.3, "unit": "logs"}, {"measurement": "reduction of bacterial density compared to late control", "setting": "S. aureus (ATCC 29213); 24 hours, 60 mg/kg", "value": 2.85, "unit": "logs"}, {"measurement": "reduction of bacterial density compared to late control", "setting": "S. aureus (ATCC 29213); 24 hours, 100 mg/kg", "value": "~3", "unit": "logs"}, {"measurement": "Median Thigh Burden (Log cfu/mL)", "setting": "S. aureus (ATCC 29213); Table 9: 10 mg/kg oral gavage, single treatment (QD), 8 Hours", "value": 5.15, "unit": "Log cfu/mL"}, {"measurement": "Median Thigh Burden (Log cfu/mL)", "setting": "S. aureus (ATCC 29213); Table 9: 10 mg/kg oral, 2 doses 12 hours apart (q12 h), 24 Hours", "value": 6.02, "unit": "Log cfu/mL"}, {"measurement": "Log Difference vs. Early Control", "setting": "S. aureus (ATCC 29213); [6]", "value": "−0.15"}, {"measurement": "Log Difference vs. Late Control (8-hour)", "setting": "S. aureus (ATCC 29213); [6]", "value": "−1.49"}, {"measurement": "Log Difference vs. Early Control", "setting": "S. aureus (ATCC 29213); [7]", "value": 0.72}, {"measurement": "Log Difference vs. Late Control (24-hour)", "setting": "S. aureus (ATCC 29213); [7]", "value": "−1.14"}, {"measurement": "Log Difference vs. Early Control", "setting": "S. aureus (ATCC 29213); [8]", "value": "−0.35"}, {"measurement": "Log Difference vs. Late Control (8-hour)", "setting": "S. aureus (ATCC 29213); [8]", "value": "−1.69"}, {"measurement": "Median Thigh Burden (Log cfu/mL)", "setting": "S. aureus (ATCC 29213); [8]", "value": 4.95, "unit": "Log cfu/mL"}, {"measurement": "Log Difference vs. Early Control", "setting": "S. aureus (ATCC 29213); [9]", "value": "−0.99"}, {"measurement": "Log Difference vs. Late Control (24-hour)", "setting": "S. aureus (ATCC 29213); [9]", "value": "−2.85"}, {"measurement": "Median Thigh Burden (Log cfu/mL)", "setting": "S. aureus (ATCC 29213); [9]", "value": 4.31, "unit": "Log cfu/mL"}, {"measurement": "Log Difference vs. Early Control", "setting": "S. aureus (ATCC 29213); [10]", "value": "−0.48"}, {"measurement": "Log Difference vs. Late Control (8-hour)", "setting": "S. aureus (ATCC 29213); [10]", "value": "−1.82"}, {"measurement": "Median Thigh Burden (Log cfu/mL)", "setting": "S. aureus (ATCC 29213); [10]", "value": 4.82, "unit": "Log cfu/mL"}, {"measurement": "Log Difference vs. Early Control", "setting": "S. aureus (ATCC 29213); [11]", "value": "−1.13"}, {"measurement": "Log Difference vs. Late Control (24-hour)", "setting": "S. aureus (ATCC 29213); [11]", "value": "−2.99"}, {"measurement": "Median Thigh Burden (Log cfu/mL)", "setting": "S. aureus (ATCC 29213); [11]", "value": 4.17, "unit": "Log cfu/mL"}, {"measurement": "MIC90", "setting": "Streptococcus pneumoniae", "value": 0.06, "unit": "µg/mL"}, {"measurement": "MIC Range", "setting": "Streptococcus pneumoniae; 67 isolates tested, Protocol 1", "value": "0.015 to 0.06", "unit": "µg/mL"}, {"measurement": "MIC", "setting": "Streptococcus pneumoniae; ATCC10015", "value": 0.022, "unit": "µg/mL"}]}
